From the supplement of paper PMC10307832

Tests used:
Assay in all cases: relative viability (nuclei count vs DMSO), 5 days (fraction); higher = more cells survive
HCC-15 = system: HCC-15
Summary of the method: (§1)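 Lung cancer cell lines were pin-tool dosed in 1536-well plates on the day after seeding, with either a lone drug or a fixed anchor-drug dose plus five library-drug doses (not always all listed) in √10 steps. Nuclei were counted on 4× images after 5 days. Relative viability is the ratio of treated-well to vehicle-well nuclei counts, with each value a median of duplicate plates.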

NCI-H1703 = system: NCI-H1703
Summary of the method: as §1

Calu-6 = system: Calu-6
Summary of the method: as §1

IA-LM = system: IA-LM
Summary of the method: as §1

NCI-H1299 = system: NCI-H1299
Summary of the method: as §1

EBC-1 = system: EBC-1
Summary of the method: as §1

UMC-11 = system: UMC-11
Summary of the method: as §1

A549 = system: A549
Summary of the method: as §1

LCLC-103H = system: LCLC-103H
Summary of the method: as §1

NC(=O)Nc1cc(-c2cccc(F)c2)sc1C(=O)N[C@H]1CCCNC1 [AZD7762] + CC1(C)CCC(c2ccc(Cl)cc2)=C(CN2CCN(c3ccc(C(=O)NS(=O)(=O)c4ccc(N[C@H](CCN5CCOCC5)CSc5ccccc5)c(S(=O)(=O)C(F)(F)F)c4)cc3)CC2)C1 [Navitoclax] (partner 0.5 µM)
relative viability (HCC-15; first compound 0.01 µM): 0.663
relative viability (HCC-15; first compound 0.03162 µM): 0.708
relative viability (HCC-15; first compound 0.1 µM): 0.771
relative viability (HCC-15; first compound 0.3162 µM): 0.728
relative viability (HCC-15; first compound 1 µM): 0.789
relative viability (NCI-H1703; first compound 0.01 µM): 0.673
relative viability (NCI-H1703; first compound 0.03162 µM): 0.286
relative viability (NCI-H1703; first compound 0.1 µM): 0.253
relative viability (NCI-H1703; first compound 0.3162 µM): 0.178
relative viability (NCI-H1703; first compound 1 µM): 0.114
relative viability (Calu-6; first compound 0.01 µM): 0.813
relative viability (Calu-6; first compound 0.03162 µM): 0.812
relative viability (Calu-6; first compound 0.1 µM): 0.531
relative viability (Calu-6; first compound 0.3162 µM): 0.129
relative viability (Calu-6; first compound 1 µM): 0.091
relative viability (IA-LM; first compound 0.01 µM): 0.992
relative viability (IA-LM; first compound 0.03162 µM): 0.858
relative viability (IA-LM; first compound 0.1 µM): 0.915
relative viability (IA-LM; first compound 0.3162 µM): 0.985
relative viability (IA-LM; first compound 1 µM): 0.187
relative viability (NCI-H1299; first compound 0.01 µM): 1.06
relative viability (NCI-H1299; first compound 0.03162 µM): 1.06
relative viability (NCI-H1299; first compound 0.1 µM): 1.09
relative viability (NCI-H1299; first compound 0.3162 µM): 1.08
relative viability (NCI-H1299; first compound 1 µM): 0.976
relative viability (EBC-1; first compound 0.01 µM): 0.524
relative viability (EBC-1; first compound 0.03162 µM): 0.427
relative viability (EBC-1; first compound 0.1 µM): 0.292
relative viability (EBC-1; first compound 0.3162 µM): 0.299
relative viability (EBC-1; first compound 1 µM): 0.182
relative viability (UMC-11; first compound 0.01 µM): 0.312
relative viability (UMC-11; first compound 0.03162 µM): 0.32
relative viability (UMC-11; first compound 0.1 µM): 0.272
relative viability (UMC-11; first compound 0.3162 µM): 0.307
relative viability (UMC-11; first compound 1 µM): 0.21
relative viability (A549; first compound 0.01 µM): 1.18
relative viability (A549; first compound 0.03162 µM): 1.29
relative viability (A549; first compound 0.1 µM): 1.2
relative viability (A549; first compound 0.3162 µM): 0.898
relative viability (A549; first compound 1 µM): 0.269

NC(=O)Nc1cc(-c2cccc(F)c2)sc1C(=O)N[C@H]1CCCNC1 [AZD7762] + CC(C)C[C@H](NC(=O)[C@H](Cc1ccccc1)NC(=O)c1cnccn1)B(O)O [Bortezomib] (partner 0.002 µM)
relative viability (HCC-15; first compound 0.01 µM): 1.01
relative viability (HCC-15; first compound 0.03162 µM): 0.95
relative viability (HCC-15; first compound 0.1 µM): 0.898
relative viability (HCC-15; first compound 0.3162 µM): 0.937
relative viability (HCC-15; first compound 1 µM): 0.986
relative viability (NCI-H1703; first compound 0.01 µM): 0.409
relative viability (NCI-H1703; first compound 0.03162 µM): 0.182
relative viability (NCI-H1703; first compound 0.1 µM): 0.167
relative viability (NCI-H1703; first compound 0.3162 µM): 0.176
relative viability (NCI-H1703; first compound 1 µM): 0.124
relative viability (Calu-6; first compound 0.01 µM): 1.03
relative viability (Calu-6; first compound 0.03162 µM): 0.96
relative viability (Calu-6; first compound 0.1 µM): 0.782
relative viability (Calu-6; first compound 0.3162 µM): 0.245
relative viability (Calu-6; first compound 1 µM): 0.152
relative viability (IA-LM; first compound 0.01 µM): 1.05
relative viability (IA-LM; first compound 0.03162 µM): 0.851
relative viability (IA-LM; first compound 0.1 µM): 1.22
relative viability (IA-LM; first compound 0.3162 µM): 1.14
relative viability (IA-LM; first compound 1 µM): 0.253
relative viability (LCLC-103H; first compound 0.01 µM): 1.19
relative viability (LCLC-103H; first compound 0.03162 µM): 1.08
relative viability (LCLC-103H; first compound 0.1 µM): 1.25
relative viability (LCLC-103H; first compound 0.3162 µM): 0.95
relative viability (LCLC-103H; first compound 1 µM): 0.867
relative viability (NCI-H1299; first compound 0.01 µM): 1.07
relative viability (NCI-H1299; first compound 0.03162 µM): 1.04
relative viability (NCI-H1299; first compound 0.1 µM): 1.04
relative viability (NCI-H1299; first compound 0.3162 µM): 1.04
relative viability (NCI-H1299; first compound 1 µM): 0.964
relative viability (EBC-1; first compound 0.01 µM): 0.633
relative viability (EBC-1; first compound 0.03162 µM): 0.508
relative viability (EBC-1; first compound 0.1 µM): 0.566
relative viability (EBC-1; first compound 0.3162 µM): 0.493
relative viability (EBC-1; first compound 1 µM): 0.309
relative viability (UMC-11; first compound 0.01 µM): 0.692
relative viability (UMC-11; first compound 0.03162 µM): 0.585
relative viability (UMC-11; first compound 0.1 µM): 0.409
relative viability (UMC-11; first compound 0.3162 µM): 0.632
relative viability (UMC-11; first compound 1 µM): 0.435

NC(=O)Nc1cc(-c2cccc(F)c2)sc1C(=O)N[C@H]1CCCNC1 [AZD7762] + CS(=O)(=O)CCNCc1ccc(-c2ccc3ncnc(Nc4ccc(OCc5cccc(F)c5)c(Cl)c4)c3c2)o1 [Lapatinib] (partner 2 µM)
relative viability (HCC-15; first compound 0.01 µM): 0.842
relative viability (HCC-15; first compound 0.03162 µM): 0.823
relative viability (HCC-15; first compound 0.1 µM): 0.807
relative viability (HCC-15; first compound 0.3162 µM): 0.782
relative viability (HCC-15; first compound 1 µM): 0.907
relative viability (NCI-H1703; first compound 0.01 µM): 0.627
relative viability (NCI-H1703; first compound 0.03162 µM): 0.31
relative viability (NCI-H1703; first compound 0.1 µM): 0.238
relative viability (NCI-H1703; first compound 0.3162 µM): 0.176
relative viability (NCI-H1703; first compound 1 µM): 0.156
relative viability (Calu-6; first compound 0.01 µM): 1.11
relative viability (Calu-6; first compound 0.03162 µM): 1.02
relative viability (Calu-6; first compound 0.1 µM): 0.96
relative viability (Calu-6; first compound 0.3162 µM): 0.2
relative viability (Calu-6; first compound 1 µM): 0.147
relative viability (IA-LM; first compound 0.01 µM): 1.13
relative viability (IA-LM; first compound 0.03162 µM): 1.11
relative viability (IA-LM; first compound 0.1 µM): 1.1
relative viability (IA-LM; first compound 0.3162 µM): 0.798
relative viability (IA-LM; first compound 1 µM): 0.16
relative viability (NCI-H1299; first compound 0.01 µM): 0.955
relative viability (NCI-H1299; first compound 0.03162 µM): 0.963
relative viability (NCI-H1299; first compound 0.1 µM): 0.968
relative viability (NCI-H1299; first compound 0.3162 µM): 0.811
relative viability (NCI-H1299; first compound 1 µM): 0.289
relative viability (EBC-1; first compound 0.01 µM): 0.215
relative viability (EBC-1; first compound 0.03162 µM): 0.191
relative viability (EBC-1; first compound 0.1 µM): 0.234
relative viability (EBC-1; first compound 0.3162 µM): 0.199
relative viability (EBC-1; first compound 1 µM): 0.186
relative viability (UMC-11; first compound 0.01 µM): 0.936
relative viability (UMC-11; first compound 0.03162 µM): 1.01
relative viability (UMC-11; first compound 0.1 µM): 0.871
relative viability (UMC-11; first compound 0.3162 µM): 0.743
relative viability (UMC-11; first compound 1 µM): 0.398
relative viability (A549; first compound 0.01 µM): 1.12
relative viability (A549; first compound 0.03162 µM): 1.02
relative viability (A549; first compound 0.1 µM): 1.05
relative viability (A549; first compound 0.3162 µM): 0.823
relative viability (A549; first compound 1 µM): 0.198
